Results: ChEMBL document CHEMBL5726250, “AMPK-activating heterocyclic compounds and methods for using the same” (2017)

Target: 5'-AMP-activated protein kinase catalytic subunit alpha-2 (Homo sapiens, UniProt P54646)
Assay: Enzyme-Linked Immunosorbent Assay: Compounds were assayed for their ability to activate AMPK using an enzyme-linked immunosorbent assay. Reagents and procedures for measuring AMPK activation are well known and kits for AMPK activation assays are commercially available.

Sequence of 5'-AMP-activated protein kinase catalytic subunit alpha-2 (P54646 whole entry): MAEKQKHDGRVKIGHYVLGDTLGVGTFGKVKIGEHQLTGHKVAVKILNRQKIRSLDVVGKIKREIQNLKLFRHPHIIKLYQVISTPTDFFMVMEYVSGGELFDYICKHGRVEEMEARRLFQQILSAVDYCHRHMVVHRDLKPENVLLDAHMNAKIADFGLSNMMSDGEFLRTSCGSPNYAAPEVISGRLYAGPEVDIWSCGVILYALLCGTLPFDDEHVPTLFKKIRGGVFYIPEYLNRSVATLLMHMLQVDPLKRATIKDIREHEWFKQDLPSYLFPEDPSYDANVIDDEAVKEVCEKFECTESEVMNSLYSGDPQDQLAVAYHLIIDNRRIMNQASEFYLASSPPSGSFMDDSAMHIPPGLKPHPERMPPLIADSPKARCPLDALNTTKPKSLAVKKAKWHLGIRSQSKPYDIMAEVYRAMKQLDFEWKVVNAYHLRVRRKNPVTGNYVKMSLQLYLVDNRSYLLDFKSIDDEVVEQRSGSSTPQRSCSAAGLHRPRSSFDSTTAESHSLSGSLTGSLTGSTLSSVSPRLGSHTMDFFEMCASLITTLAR

| EC50 [µM] | SMILES |
| --- | --- |
| > 10 | O=C(Nc1ccc(-c2ccc([N+](=O)[O-])cc2)cc1)c1ccc(C(=O)N2CCN(Cc3ccc(F)cc3)CC2)cn1 |
| > 10 | O=C(Nc1ccccc1-c1ccccc1)c1ccc(C(=O)N2CCN(Cc3ccc(F)cc3)CC2)cn1 |
